Tests used:
[1] = biological target: T1, DLK (Homo sapiens, UniProt Q12852); assay: DLK biochemical assay (TR-FRET, MKK7 phosphorylation); conditions: DLK catalytic domain, MKK7 substrate, 60 μM ATP
T1 construct: 10 nM DLK, catalytic domain, Carna Biosiences; purchased Carna Biosciences ('Carna Biosiences' [sic])
T1 sequence (Q12852 125-366 limits assumed): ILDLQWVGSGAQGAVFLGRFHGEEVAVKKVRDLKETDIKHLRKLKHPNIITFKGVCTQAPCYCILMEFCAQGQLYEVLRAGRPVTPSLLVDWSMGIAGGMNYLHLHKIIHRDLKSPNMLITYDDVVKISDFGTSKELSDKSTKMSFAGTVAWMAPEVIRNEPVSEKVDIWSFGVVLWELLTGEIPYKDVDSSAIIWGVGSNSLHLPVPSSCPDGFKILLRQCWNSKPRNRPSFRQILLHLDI
In short: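 TR-FRET read-out (ratio of 665 nm acceptor to Eu donor channel) tracks MKK7 T275/S277 phosphorylation by DLK, using Eu-labelled anti-phospho-MKK7 and XL665-labelled anti-His on His-MKK7. Reactions were stopped and detected in pH 7.5 Tris buffer containing 100 mM EDTA, 100 mM NaCl, 200 mM KF and 0.01% Tween 20.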

[2] = biological target: T2, LZK (Homo sapiens, UniProt O43283); assay: LZK biochemical assay (TR-FRET, MKK7 phosphorylation); conditions: LZK catalytic domain, MKK7 substrate, 15 μM ATP
T2 construct: 10 nM LZK, catalytic domain, Carna Biosiences in assay buffer; purchased Carna Biosciences ('Carna Biosiences' [sic])
T2 sequence (O43283 168-409 limits assumed): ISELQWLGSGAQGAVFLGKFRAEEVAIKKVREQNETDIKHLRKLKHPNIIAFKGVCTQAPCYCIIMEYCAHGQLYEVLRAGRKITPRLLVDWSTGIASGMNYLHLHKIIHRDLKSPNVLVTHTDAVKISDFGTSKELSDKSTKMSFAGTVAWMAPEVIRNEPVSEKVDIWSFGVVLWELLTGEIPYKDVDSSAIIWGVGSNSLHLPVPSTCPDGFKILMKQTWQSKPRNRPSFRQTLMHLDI

| IC50 [1] [nM] | IC50 [2] [nM] | SMILES |
| --- | --- | --- |
| 4.2 | 20 | CC(C)(CO)NC(=O)c1cc(-c2cnn(C(c3ccc(C(F)(F)F)nc3)C3CCOCC3)c2)cn2nc(N)nc12 (racemic) [Example I-166, 2-Amino-N-(1-hydroxy-2-methylpropan-2-yl)-6-(1-{tetrahydro-2H-pyran-4-yl[6-(trifluoromethyl)pyridin-3-yl]methyl}-1H-pyrazol-4-yl)[1,2,4]triazolo[1,5-a]pyridine-8-carboxamide] |
| 26 | 71 | CCC(c1ccc(OC(F)(F)F)nc1)n1cc(-c2cc(C(=O)NC(C)(C)CO)c3nc(N)nn3c2)cn1 (racemic) [Example I-169, 2-Amino-N-(1-hydroxy-2-methylpropan-2-yl)-6-(1-{1-[6-(trifluoromethoxy)pyridin-3-yl]propyl}-1H-pyrazol-4-yl)[1,2,4]triazolo[1,5-a]pyridine-8-carboxamide] |
| 4 | 76 | CC(C)C(c1cncc(Cl)c1)n1cc(-c2cc(C(=O)NC(C)(C)CO)c3nc(N)nn3c2)cn1 (racemic) [Example I-172, 2-Amino-6-{1-[1-(5-chloropyridin-3-yl)-2-methylpropyl]-1H-pyrazol-4-yl}-N-(1-hydroxy-2-methylpropan-2-yl)[1,2,4]triazolo[1,5-a]pyridine-8-carboxamide] |
| 17 | 6.7 | CC[C@H](C)NC(=O)c1cc(-c2cnn(C3CCN(CC)CC3)c2)cn2nc(N)nc12 (single isomer, unassigned) [Example I-6] |
| 32 | 3.8 | CC[C@H](C)NC(=O)c1cc(-c2cnn(C3CCN(C(C)C)CC3)c2)cn2nc(N)nc12 (single isomer, unassigned) [Example I-7] |
| 68 | 9.4 | CC[C@H](C)NC(=O)c1cc(-c2cnn(C3CCN(C4COC4)CC3)c2)cn2nc(N)nc12 (single isomer, unassigned) [Example I-8] |
| 80 | 6.9 | CC[C@H](C)NC(=O)c1cc(-c2cnn(C3CCN(CC4COC4)CC3)c2)cn2nc(N)nc12 (single isomer, unassigned) [Example I-9] |
| 24 | 9 | CC[C@H](C)NC(=O)c1cc(-c2cnn(C3CCN(Cc4ccccc4)CC3)c2)cn2nc(N)nc12 (single isomer, unassigned) [Example I-10] |
| 82 | 14 | CC[C@H](C)NC(=O)c1cc(-c2cnn(C3CCN(C(C)=O)CC3)c2)cn2nc(N)nc12 (single isomer, unassigned) [Example I-11] |
| 120 | 70 | CC[C@H](C)NC(=O)c1cc(-c2cnn(C3CCCC3)c2)cc2nc(N)nn12 (single isomer, unassigned) [Example I-12] |
| 12 | 4.7 | CC[C@H](C)NC(=O)c1cc(-c2cnn(C3CCc4ccccc43)c2)cn2nc(N)nc12 (single isomer, unassigned) [Example I-14] |
| 31 | 7.8 | CC[C@H](C)NC(=O)c1cc(-c2cnn(C3CCc4ccccc43)c2)cn2nc(N)nc12 (single isomer, unassigned) [Example I-15] |
| 22 | 4.7 | CC[C@H](C)NC(=O)c1cc(-c2cnn(C3CCOc4ccccc43)c2)cc2nc(N)nn12 (single isomer, unassigned) [Example I-17] |
| 47 | 6 | CC[C@H](C)NC(=O)c1cc(-c2cnn(C3CCOc4ccccc43)c2)cc2nc(N)nn12 (single isomer, unassigned) [Example I-18] |
| 2.7 | 56 | CC[C@H](C)NC(=O)c1cc(-c2cnn(Cc3cccc4cn[nH]c34)c2)cn2nc(N)nc12 (single isomer, unassigned) [Example I-23] |
| 23 | 140 | CC[C@H](C)NC(=O)c1cc(-c2cnn(C(c3ccccc3)C(C)C)c2)cc2nc(N)nn12 (single isomer, unassigned) [Example I-25] |
| 1.1 | 18 | CC[C@H](C)NC(=O)c1cc(-c2cnn([C@H](c3ccccc3)C(C)C)c2)cc2nc(N)nn12 (single isomer, unassigned) [Example I-26] |
| 2.3 | 170 | CC[C@H](C)NC(=O)c1cc(-c2cnn(C(c3ccccc3)C3(C)CC3)c2)cn2nc(N)nc12 (single isomer, unassigned) [Example I-29] |
| 140 | 310 | CC[C@H](C)NC(=O)c1cc(-c2cnn(C(c3ccccc3)C3(C)CC3)c2)cn2nc(N)nc12 (single isomer, unassigned) [Example I-30] |
| 56 | 180 | CC[C@H](C)NC(=O)c1cc(-c2cnn(C(c3ccccc3)C3CC(F)(F)C3)c2)cn2nc(N)nc12 (single isomer, unassigned) [Example I-32] |

| IC50 [1] [nM] | IC50 [2] [nM] | SMILES |
| --- | --- | --- |
| 2.2 | 59 | CC[C@H](C)NC(=O)c1cc(-c2cnn(C(c3ccccc3)C3CC(F)(F)C3)c2)cn2nc(N)nc12 (single isomer, unassigned) [Example I-33] |
| 410 | 990 | CC[C@H](C)NC(=O)c1cc(-c2cnn(C(c3ccccc3)C(C)(C)C)c2)cn2nc(N)nc12 (single isomer, unassigned) [Example I-35] |
| 25 | 180 | CC[C@H](C)NC(=O)c1cc(-c2cnn(C(c3ccccc3)C(C)(C)C)c2)cn2nc(N)nc12 (single isomer, unassigned) [Example I-36] |
| 1.3 | 91 | CC[C@H](C)NC(=O)c1cc(-c2cnn(C(CC(F)(F)F)c3ccccc3)c2)cn2nc(N)nc12 (single isomer, unassigned) [Example I-38] |
| 24 | 230 | CC[C@H](C)NC(=O)c1cc(-c2cnn(C(CC(F)(F)F)c3ccccc3)c2)cn2nc(N)nc12 (single isomer, unassigned) [Example I-39] |
| 2.8 | 26 | CC[C@H](C)NC(=O)c1cc(-c2cnn(C(COC)c3ccccc3)c2)cn2nc(N)nc12 (single isomer, unassigned) [Example I-41] |
| 9.8 | 37 | CC[C@H](C)NC(=O)c1cc(-c2cnn(C(COC)c3ccccc3)c2)cn2nc(N)nc12 (single isomer, unassigned) [Example I-42] |
| 33 | 160 | CC[C@H](C)NC(=O)c1cc(-c2cnn(C(c3ccc(F)cc3)C(C)C)c2)cn2nc(N)nc12 (single isomer, unassigned) [Example I-44] |
| 1.3 | 32 | CC[C@H](C)NC(=O)c1cc(-c2cnn([C@H](c3ccc(F)cc3)C(C)C)c2)cn2nc(N)nc12 (single isomer, unassigned) [Example I-45] |
| 25 | 40 | CC[C@H](C)NC(=O)c1cc(-c2cnn(Cc3ccc(C(F)(F)F)cc3)c2)cn2nc(N)nc12 (single isomer, unassigned) [Example I-46] |
| 25 | 120 | CCC(c1ccc(N2CCOCC2)cc1)n1cc(-c2cc(C(=O)N[C@@H](C)CC)c3nc(N)nn3c2)cn1 (single isomer, unassigned) [Example I-48] |
| 1.5 | 17 | CCC(c1ccc(N2CCOCC2)cc1)n1cc(-c2cc(C(=O)N[C@@H](C)CC)c3nc(N)nn3c2)cn1 (single isomer, unassigned) [Example I-49] |
| 1.6 | 25 | CC[C@H](C)NC(=O)c1cc(-c2cnn(Cc3cccc4cn[nH]c34)c2)cc2nc(N)nn12 (single isomer, unassigned) [Example I-50] |
| 0.7 | 5.6 | CC[C@H](C)NC(=O)c1cc(-c2cnn(C(c3ccccc3)C3CCOCC3)c2)cc2nc(N)nn12 (single isomer, unassigned) [Example I-52] |
| 11 | 24 | CC[C@H](C)NC(=O)c1cc(-c2cnn(C(c3ccccc3)C3CCOCC3)c2)cc2nc(N)nn12 (single isomer, unassigned) [Example I-53] |
| 1.9 | 8.5 | CC[C@H](C)NC(=O)c1cc(-c2cnn([C@@H](CC)c3ccc(F)cc3)c2)cc2nc(N)nn12 (single isomer, unassigned) [Example I-54] |
| 2.7 | 19 | CCC(c1ccc(F)cn1)n1cc(-c2cc(C(=O)N[C@@H](C)CC)c3nc(N)nn3c2)cn1 (single isomer, unassigned) [Example I-56] |
| 59 | 61 | CCC(c1ccc(F)cn1)n1cc(-c2cc(C(=O)N[C@@H](C)CC)c3nc(N)nn3c2)cn1 (single isomer, unassigned) [Example I-57] |
| 20 | 58 | CCC(c1cncc(Cl)c1)n1cc(-c2cc(C(=O)N[C@@H](C)CC)c3nc(N)nn3c2)cn1 (single isomer, unassigned) [Example I-59] |
| 3.7 | 8.9 | CC[C@H](C)NC(=O)c1cc(-c2cnn([C@@H](CC)c3cncc(Cl)c3)c2)cn2nc(N)nc12 (single isomer, unassigned) [Example I-60] |
